PubChem BioAssay (NCI)
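Abbreviation: GI50, concentration required for 50% inhibition of growth. TGI is the concentration that stops growth completely.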

How the values were obtained:
Assay in all cases: NCI anticancer screen, dose series, 384-well format
[1] = system: NCI-H226 lung
[2] = system: NCI-H23 lung
[3] = system: NCI-H322M lung
[4] = system: NCI-H460 NSCLC
[5] = system: NCI-H522 lung
[6] = system: NCI/ADR-RES ovarian
[7] = system: OVCAR-3 ovarian
[8] = system: OVCAR-4 ovarian
[9] = system: OVCAR-5 ovarian
[10] = system: OVCAR-8 ovarian
[11] = system: PC-3 prostate
[12] = system: RPMI-8226 leukemia
[13] = system: RXF 393 renal
[14] = system: SF-268 CNS
[15] = system: SF-295 CNS
[16] = system: SF-539 CNS
[17] = system: SK-MEL-28 melanoma
[18] = system: SK-MEL-5 melanoma
[19] = system: SK-OV-3 ovarian
[20] = system: SN12C renal
[21] = system: SNB-19 CNS
[22] = system: SNB-75 CNS
[23] = system: SW-620 colon
[24] = system: T-47D breast
[25] = system: TK-10 renal
[26] = system: U251 glioblastoma
[27] = system: UACC-257 melanoma
[28] = system: UACC-62 melanoma
[29] = system: UO-31 renal

## C[C@H](O)C(=O)N1CCC(CCn2c(Sc3cc4c(cc3Br)OCO4)nc3c(N)ncnc32)CC1
[1]
  TGI: 7660 nM
[2]
  GI50: 214 nM
  TGI: 640 nM
[3]
  GI50: 593 nM
  TGI: 58100 nM
[4]
  GI50: 275 nM
  TGI: 745 nM
[5]
  GI50: 203 nM
  TGI: 410 nM
[6]
  GI50: 9820 nM
  TGI: 35500 nM
[7]
  GI50: 405 nM
  TGI: 3270 nM
[8]
  GI50: 17300 nM
  TGI: > 100000 nM
[9]
  GI50: 723 nM
  TGI: > 100000 nM
[10]
  GI50: 272 nM
  TGI: 707 nM
[11]
  GI50: 655 nM
  TGI: 4010 nM
[12]
  GI50: 472 nM
  TGI: 2530 nM
[13]
  GI50: 346 nM
  TGI: 26000 nM
[14]
  GI50: 174 nM
  TGI: 494 nM
[15]
  GI50: 433 nM
  TGI: 1700 nM
[16]
  GI50: 223 nM
  TGI: 442 nM
[17]
  GI50: 589 nM
  TGI: 31200 nM
[18]
  GI50: 335 nM
  TGI: 19600 nM
[19]
  GI50: 827 nM
  TGI: 76600 nM
[20]
  GI50: 333 nM
  TGI: 1840 nM
[21]
  GI50: 694 nM
  TGI: > 100000 nM
[22]
  GI50: 1490 nM
  TGI: 7220 nM
[23]
  GI50: 303 nM
  TGI: 2550 nM
[24]
  GI50: 344 nM
  TGI: 1500 nM
[25]
  GI50: 522 nM
  TGI: 23300 nM
[26]
  GI50: 395 nM
  TGI: 1450 nM
[27]
  GI50: 4380 nM
  TGI: 31000 nM
[28]
  GI50: 534 nM
  TGI: 3070 nM
[29]
  GI50: 680 nM
  TGI: 58800 nM
